# In the supplement of paper PMC10307832:
# Assays:
# Experiment in all cases: relative viability (nuclei count vs DMSO), 5 days (fraction); higher = more cells survive
# NCI-H1437 = system: NCI-H1437
# Method in brief: (§1)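 Medians of duplicate plates are given as relative viability. That measure is the nuclei count in treated wells divided by the count in vehicle wells. Counts were taken on 4× images of lung cancer cell lines in 1536-well plates, 5 days after pin-tool dosing the day after seeding with one drug alone or a fixed anchor-drug dose plus five library-drug doses (not always all listed) in √10 steps.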
# H3255 = system: H3255
# Method in brief: as §1
# NCI-H441 = system: NCI-H441
# Method in brief: as §1
# NCI-H1355 = system: NCI-H1355
# Method in brief: as §1
# NCI-H2228 = system: NCI-H2228
# Method in brief: as §1
# NCI-H1651 = system: NCI-H1651
# Method in brief: as §1
# LU99A = system: LU99A
# Method in brief: as §1
# NCI-H322M = system: NCI-H322M
# Method in brief: as §1
# HCC-827 = system: HCC-827
# Method in brief: as §1
# LK-2 = system: LK-2
# Method in brief: as §1
# CAL-12T = system: CAL-12T
# Method in brief: as §1
# 201T = system: 201T
# Method in brief: as §1
# UMC-11 = system: UMC-11
# Method in brief: as §1
# NCI-H2085 = system: NCI-H2085
# Method in brief: as §1
# NCI-H1792 = system: NCI-H1792
# Method in brief: as §1
# NCI-H23 = system: NCI-H23
# Method in brief: as §1
# NCI-H2405 = system: NCI-H2405
# Method in brief: as §1
# HCC-15 = system: HCC-15
# Method in brief: as §1
# RERF-LC-KJ = system: RERF-LC-KJ
# Method in brief: as §1
compound,measurement,setting,value
COCC1(CO)C(=O)C2CCN1CC2 (configuration not stated) [PRIMA-1MET] + CC1(C)CCC(c2ccc(Cl)cc2)=C(CN2CCN(c3ccc(C(=O)NS(=O)(=O)c4ccc(N[C@H](CCN5CCOCC5)CSc5ccccc5)c(S(=O)(=O)C(F)(F)F)c4)cc3)CC2)C1 [Navitoclax] (partner 0.5 µM),relative viability,NCI-H1437; first compound 0.2 µM,1.14
same,relative viability,NCI-H1437; first compound 0.6325 µM,1.05
same,relative viability,NCI-H1437; first compound 2 µM,1.08
same,relative viability,NCI-H1437; first compound 6.325 µM,1.14
same,relative viability,NCI-H1437; first compound 20 µM,0.968
same,relative viability,H3255; first compound 0.2 µM,0.557
same,relative viability,H3255; first compound 0.6325 µM,0.522
same,relative viability,H3255; first compound 2 µM,0.515
same,relative viability,H3255; first compound 6.325 µM,0.544
same,relative viability,H3255; first compound 20 µM,0.354
same,relative viability,NCI-H441; first compound 0.2 µM,0.561
same,relative viability,NCI-H441; first compound 0.6325 µM,0.334
same,relative viability,NCI-H441; first compound 2 µM,1.02
same,relative viability,NCI-H441; first compound 6.325 µM,0.644
same,relative viability,NCI-H441; first compound 20 µM,0.0807
same,relative viability,NCI-H1355; first compound 0.2 µM,1.08
same,relative viability,NCI-H1355; first compound 0.6325 µM,0.791
same,relative viability,NCI-H1355; first compound 2 µM,0.804
same,relative viability,NCI-H1355; first compound 6.325 µM,0.947
same,relative viability,NCI-H1355; first compound 20 µM,0.944
same,relative viability,NCI-H2228; first compound 0.2 µM,0.9
same,relative viability,NCI-H2228; first compound 0.6325 µM,0.839
same,relative viability,NCI-H2228; first compound 2 µM,1.09
same,relative viability,NCI-H2228; first compound 6.325 µM,0.62
same,relative viability,NCI-H2228; first compound 20 µM,0.0661
same,relative viability,NCI-H1651; first compound 0.2 µM,1.15
same,relative viability,NCI-H1651; first compound 0.6325 µM,1
same,relative viability,NCI-H1651; first compound 2 µM,0.918
same,relative viability,NCI-H1651; first compound 6.325 µM,1.19
same,relative viability,NCI-H1651; first compound 20 µM,0.974
same,relative viability,LU99A; first compound 0.2 µM,1.06
same,relative viability,LU99A; first compound 0.6325 µM,0.611
same,relative viability,LU99A; first compound 2 µM,0.898
same,relative viability,LU99A; first compound 6.325 µM,0.752
same,relative viability,LU99A; first compound 20 µM,0.101
same,relative viability,NCI-H322M; first compound 0.2 µM,1.51
same,relative viability,NCI-H322M; first compound 6.325 µM,1.4
same,relative viability,NCI-H322M; first compound 20 µM,1.13
same,relative viability,HCC-827; first compound 0.2 µM,1.01
same,relative viability,HCC-827; first compound 0.6325 µM,0.9
same,relative viability,HCC-827; first compound 2 µM,0.721
same,relative viability,HCC-827; first compound 6.325 µM,1
same,relative viability,HCC-827; first compound 20 µM,1.03
same,relative viability,LK-2; first compound 0.2 µM,1.06
same,relative viability,LK-2; first compound 0.6325 µM,0.771
same,relative viability,LK-2; first compound 2 µM,0.617
same,relative viability,LK-2; first compound 6.325 µM,0.726
same,relative viability,LK-2; first compound 20 µM,0.133
same,relative viability,CAL-12T; first compound 0.2 µM,1.3
same,relative viability,CAL-12T; first compound 0.6325 µM,1.32
same,relative viability,CAL-12T; first compound 2 µM,1.15
same,relative viability,CAL-12T; first compound 6.325 µM,1.3
same,relative viability,CAL-12T; first compound 20 µM,0.583
same,relative viability,201T; first compound 0.2 µM,1.31
same,relative viability,201T; first compound 0.6325 µM,1.17
same,relative viability,201T; first compound 2 µM,1.13
same,relative viability,201T; first compound 6.325 µM,1.27
same,relative viability,201T; first compound 20 µM,1.2
same,relative viability,UMC-11; first compound 0.2 µM,0.347
same,relative viability,UMC-11; first compound 0.6325 µM,0.268
same,relative viability,UMC-11; first compound 2 µM,0.332
same,relative viability,UMC-11; first compound 6.325 µM,0.331
same,relative viability,UMC-11; first compound 20 µM,0.333
same,relative viability,NCI-H2085; first compound 0.2 µM,1.2
same,relative viability,NCI-H2085; first compound 0.6325 µM,1.04
same,relative viability,NCI-H2085; first compound 2 µM,1.09
same,relative viability,NCI-H2085; first compound 6.325 µM,0.734
same,relative viability,NCI-H2085; first compound 20 µM,0.364
same,relative viability,NCI-H1792; first compound 0.2 µM,0.525
same,relative viability,NCI-H1792; first compound 0.6325 µM,0.48
same,relative viability,NCI-H1792; first compound 2 µM,0.589
same,relative viability,NCI-H1792; first compound 6.325 µM,0.617
same,relative viability,NCI-H1792; first compound 20 µM,0.544
same,relative viability,NCI-H23; first compound 0.2 µM,1.03
same,relative viability,NCI-H23; first compound 0.6325 µM,0.668
same,relative viability,NCI-H23; first compound 2 µM,0.701
same,relative viability,NCI-H23; first compound 6.325 µM,0.811
same,relative viability,NCI-H23; first compound 20 µM,0.119
same,relative viability,NCI-H2405; first compound 0.2 µM,0.676
same,relative viability,NCI-H2405; first compound 0.6325 µM,0.989
same,relative viability,NCI-H2405; first compound 6.325 µM,0.52
same,relative viability,NCI-H2405; first compound 20 µM,0.078
same,relative viability,HCC-15; first compound 0.2 µM,0.772
same,relative viability,HCC-15; first compound 0.6325 µM,0.686
same,relative viability,HCC-15; first compound 2 µM,0.694
same,relative viability,HCC-15; first compound 6.325 µM,0.713
same,relative viability,HCC-15; first compound 20 µM,0.455
same,relative viability,RERF-LC-KJ; first compound 0.2 µM,1.33
same,relative viability,RERF-LC-KJ; first compound 0.6325 µM,0.929
same,relative viability,RERF-LC-KJ; first compound 2 µM,0.833
same,relative viability,RERF-LC-KJ; first compound 6.325 µM,0.837
same,relative viability,RERF-LC-KJ; first compound 20 µM,0.814
